Experimental data: ChEMBL document CHEMBL1201862, “PubChem BioAssay data set” (2004)
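Values below derive from 48-hour exposures of cells grown in 96-well plates, with endpoints linearly interpolated between the two concentrations bracketing the appropriate inhibition level. GI50 marks 50% less growth.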 Active and inactive are the calls of the source. Cut-off read from the data, not from the text of the source: active = GI50 up to about 1.1 µM and inactive = higher.

Columns and labels:
Assay in all cases: inhibition of tumour cell growth, NCI panel, 48 h
COLO 205 = test system: COLO 205
HT-29 = test system: HT-29
EKVX = test system: EKVX
HOP-92 = test system: HOP-92
SK-MEL-5 = test system: SK-MEL-5
NCI-H460 = test system: NCI-H460
TK-10 = test system: TK-10
OVCAR-4 = test system: OVCAR-4
RXF 393 = test system: RXF 393
SNB-78 = test system: SNB-78
CAKI-1 = test system: CAKI-1
HCT-15 = test system: HCT-15
HOP-18 = test system: HOP-18
HOP-62 = test system: HOP-62
SF-539 = test system: SF-539
K562 = test system: K562
OVCAR-5 = test system: OVCAR-5
CCRF-CEM = test system: CCRF-CEM
HL-60 = test system: HL-60
SR = test system: SR

Row | SMILES | GI50 (COLO 205) | GI50 (HT-29) | GI50 (EKVX) | GI50 (HOP-92) | GI50 (SK-MEL-5) | GI50 (NCI-H460) | GI50 (TK-10) | GI50 (OVCAR-4) | GI50 (RXF 393) | GI50 (SNB-78) | GI50 (CAKI-1) | GI50 (HCT-15) | GI50 (HOP-18) | GI50 (HOP-62) | GI50 (SF-539) | GI50 (K562) | GI50 (OVCAR-5) | GI50 (CCRF-CEM) | GI50 (HL-60) | GI50 (SR)
1 | COc1ccc(C2C(C(=O)O)=C(CO)Oc3cc4c(cc32)OCO4)cc1 (centres undefined) | > 100 µM (inactive) | > 100 µM (inactive) | > 100 µM (inactive) | > 100 µM (inactive) | > 100 µM (inactive) | > 100 µM (inactive) | > 100 µM (inactive) | > 100 µM (inactive) | > 100 µM (inactive) | > 100 µM (inactive) | > 100 µM (inactive) | > 100 µM | > 100 µM (inactive) | 32.5 µM (inactive) |  |  |  |  |  | 
2 | CC1C(=O)OC2CC[N+]3(CC(=O)c4ccc(Br)cc4)CC=C(COC(=O)C(C)(O)C1(C)O)C23 (centres undefined) | > 375 µM (inactive) | > 375 µM (inactive) | > 375 µM (inactive) | > 299 µM (inactive) | > 375 µM (inactive) | > 375 µM (inactive) |  | > 375 µM (inactive) | > 375 µM (inactive) | 211 µM (inactive) | > 375 µM (inactive) | > 375 µM | > 375 µM (inactive) | > 375 µM (inactive) | > 375 µM (inactive) | > 375 µM (inactive) | > 375 µM (inactive) | > 375 µM (inactive) | 361 µM (inactive) | 
3 | C#CCOc1c(C(=O)OCC)c(=O)n(C)c2ccccc12 | > 100 µM (inactive) | > 100 µM (inactive) | > 100 µM (inactive) | 70 µM (inactive) | > 100 µM (inactive) | > 100 µM (inactive) | > 100 µM (inactive) |  |  | > 100 µM (inactive) | > 100 µM (inactive) | > 100 µM | > 100 µM (inactive) | < 0.01 µM (active) | > 100 µM (inactive) | > 100 µM (inactive) |  | > 100 µM (inactive) | > 100 µM (inactive) | 
4 | CN(C)CCNC(=O)Cn1ccc(=O)c2ccc([N+](=O)[O-])cc21 | 47.1 µM (inactive) | 52 µM (inactive) | > 100 µM (inactive) | > 100 µM (inactive) | > 100 µM (inactive) | > 100 µM (inactive) | > 100 µM (inactive) | 17.5 µM (inactive) | > 100 µM (inactive) |  | > 100 µM (inactive) | 73.8 µM |  | > 100 µM (inactive) | > 100 µM (inactive) | > 100 µM (inactive) | > 100 µM (inactive) | > 100 µM (inactive) | > 100 µM (inactive) | > 100 µM (inactive)
5 | COC(=O)c1nn(C(=N)c2ccc(Cl)cc2)c2c1CCC2 | > 100 µM (inactive) | > 100 µM (inactive) |  | > 100 µM (inactive) | > 100 µM (inactive) | > 100 µM (inactive) | > 100 µM (inactive) | > 100 µM (inactive) | > 100 µM (inactive) | > 100 µM (inactive) | > 100 µM (inactive) | > 100 µM |  | > 100 µM (inactive) | > 100 µM (inactive) | > 100 µM (inactive) | > 100 µM (inactive) | > 100 µM (inactive) | > 100 µM (inactive) | 14.7 µM (inactive)
6 | Cn1nc(N)nc1N=S(C)(C)=N | > 100 µM (inactive) | > 100 µM (inactive) | > 100 µM (inactive) | > 100 µM (inactive) | > 100 µM (inactive) | > 100 µM (inactive) | > 100 µM (inactive) | > 100 µM (inactive) | > 100 µM (inactive) | > 100 µM (inactive) | > 100 µM (inactive) | > 100 µM | > 100 µM (inactive) | > 100 µM (inactive) | > 100 µM (inactive) | > 100 µM (inactive) | > 100 µM (inactive) | > 100 µM (inactive) | > 100 µM (inactive) | 
7 | NC(CCOCCP(=O)(O)O)C(=O)O (centres undefined) | > 100 µM (inactive) | > 100 µM (inactive) | > 100 µM (inactive) | > 100 µM (inactive) | > 100 µM (inactive) | > 100 µM (inactive) | > 100 µM (inactive) | > 100 µM (inactive) | > 100 µM (inactive) |  | > 100 µM (inactive) | > 100 µM |  |  | > 100 µM (inactive) | > 100 µM (inactive) | > 100 µM (inactive) | > 100 µM (inactive) | > 100 µM (inactive) | > 100 µM (inactive)
8 | Nc1nc(=O)[nH][nH]1 | > 100 µM (inactive) | > 100 µM (inactive) | > 100 µM (inactive) | > 100 µM (inactive) | > 100 µM (inactive) | > 100 µM (inactive) |  | > 100 µM (inactive) | > 100 µM (inactive) | > 100 µM (inactive) | > 100 µM (inactive) | > 100 µM |  | > 100 µM (inactive) | > 100 µM (inactive) | > 100 µM (inactive) | > 100 µM (inactive) | > 100 µM (inactive) | > 100 µM (inactive) | 
9 | Cc1n[nH]c(N)c1C(N)=O | > 100 µM (inactive) | > 100 µM (inactive) | > 100 µM (inactive) |  | > 100 µM (inactive) |  | > 100 µM (inactive) | > 100 µM (inactive) | 21.5 µM (inactive) | > 100 µM (inactive) | > 100 µM (inactive) | > 100 µM | < 0.01 µM (active) |  | > 100 µM (inactive) | > 100 µM (inactive) | > 100 µM (inactive) | > 100 µM (inactive) | > 100 µM (inactive) | 
10 | S=C(S)NCC1CCC(CNC(=S)S)CC1 (centres undefined) | 42 µM (inactive) | 17.7 µM (inactive) | 62.1 µM (inactive) |  | 87.9 µM (inactive) | 70.5 µM (inactive) | 22.6 µM (inactive) | 42.8 µM (inactive) | 20 µM (inactive) |  | 16.9 µM (inactive) | 23.6 µM |  | 20.7 µM (inactive) | 38.5 µM (inactive) | 14.2 µM (inactive) | > 100 µM (inactive) | 10.7 µM (inactive) | 48.9 µM (inactive) | 
11 | CCOC(=O)/C(=C\NC#N)c1nc2ccccc2[nH]1 | > 100 µM (inactive) | > 100 µM (inactive) | > 100 µM (inactive) | > 100 µM (inactive) | 65.2 µM (inactive) | 60.5 µM (inactive) | 85.5 µM (inactive) | > 100 µM (inactive) | > 100 µM (inactive) |  | > 100 µM (inactive) | 91 µM |  | > 100 µM (inactive) | > 100 µM (inactive) |  | > 100 µM (inactive) |  | 45.5 µM (inactive) | 52.7 µM (inactive)
12 | O=C1NC(=O)C2(CCc3ccc(N(CCCl)CCCl)cc32)N1 (centres undefined) | 12.3 µM (inactive) | 16.4 µM (inactive) | 3.15 µM (inactive) | 13.5 µM (inactive) | 13.5 µM (inactive) | 3.98 µM (inactive) |  | 19.8 µM (inactive) | 6.7 µM (inactive) | 22 µM (inactive) | 3.56 µM (inactive) | 15.1 µM | 20.2 µM (inactive) | 9.91 µM (inactive) | 5.27 µM (inactive) | 19.8 µM (inactive) | 13.2 µM (inactive) | 1.41 µM (inactive) | 1.65 µM (inactive) | 
13 | O=S(=O)(O)c1ccc(-c2c3nc(c(-c4ccc(S(=O)(=O)O)cc4)c4ccc([nH]4)c(-c4ccc(S(=O)(=O)O)cc4)c4nc(c(-c5ccc(S(=O)(=O)O)cc5)c5ccc2[nH]5)C=C4)C=C3)cc1 | 42 µM (inactive) | 49.8 µM (inactive) |  | 91.2 µM (inactive) | 51.2 µM (inactive) | 57.5 µM (inactive) | 21.6 µM (inactive) | 29 µM (inactive) | 26.9 µM (inactive) |  | 28.3 µM (inactive) | 26.4 µM |  | > 100 µM (inactive) | > 100 µM (inactive) | 37.2 µM (inactive) | 53.5 µM (inactive) | 23 µM (inactive) | 55.5 µM (inactive) | 45.3 µM (inactive)
14 | CC1C(O)[C@@]2(OC[C@@]34C(=O)CC5(O)[C@H](CCC6Cc7nc8c(nc7C[C@]65C)CC5CC[C@@H]6C7=C[C@H]9O[C@@]%10(O[C@@](C)(CO)C[C@@H]%10O)C(C)[C@@]9(O)[C@]7(C)[C@@H](O)CC6[C@]5(C)C8)C3=CC[C@H]4C2C)OC1(C)C (some centres undefined) | 0.00532 µM (active) | 0.000622 µM (active) | 0.00084 µM (active) | < 0.000355 µM (active) | 0.00667 µM (active) | < 0.000355 µM (active) |  | 0.604 µM (active) | < 0.000355 µM (active) | 0.00146 µM (active) | 0.0119 µM (active) | 0.00667 µM | 0.849 µM (active) | < 0.000355 µM (active) | < 0.000355 µM (active) | < 0.000355 µM (active) | 0.00211 µM (active) | < 0.000355 µM (active) | < 0.000355 µM (active) | 
15 | OC[C@H]1NC[C@@H](O)[C@@H](O)[C@H]1O | > 100 µM (inactive) | > 100 µM (inactive) |  | > 100 µM (inactive) | > 100 µM (inactive) | > 100 µM (inactive) | > 100 µM (inactive) | > 100 µM (inactive) | > 100 µM (inactive) |  | > 100 µM (inactive) | > 100 µM |  | > 100 µM (inactive) |  | > 100 µM (inactive) | > 100 µM (inactive) | > 100 µM (inactive) |  | > 100 µM (inactive)
16 | OC(c1ccc(Cl)cc1)(c1ccc(Cl)cc1)c1cncnc1 | 19 µM (inactive) | 16.6 µM (inactive) |  | 17.4 µM (inactive) | 13.6 µM (inactive) | 18.2 µM (inactive) | 21.8 µM (inactive) | 14.7 µM (inactive) | 13.4 µM (inactive) |  | 17.6 µM (inactive) | 19 µM |  | 18.6 µM (inactive) |  | 4.5 µM (inactive) | 18.9 µM (inactive) | 15.3 µM (inactive) | > 10 µM (inactive) | 31.7 µM (inactive)
